Results: patent publication US10160705B2, “Class of HDAC inhibitors expands the renal progenitor cells population and improves the rate of recovery from acute kidney injury” (University of Pittsburgh—Of the Commonwealth System of …, priority 2011, dated 2018)
“Also recorded” adds a separate entry of the source. Where two headings read alike, the source gives them in different places.

Experiments:
human HDACs = experiment: Fluorescence histone deacetylation assay with HeLa cell nuclear extract; assay type: biochemical; conditions: 5 mM compound
Experimental: To evaluate this in vitro, the deacetylation of a fluorescent peptide substrate was measured in the presence of human HDACs.
In vitro HDAC activity assays were performed using a fluorescence HDAC assay kit (Active Motif) according to the manufacturer's instructions. For maintaining compound solubility at 5 mM, the final DMSO concentration in all assay wells was increased to 5%. Fluorescence was detected using an M5 Plate Reader ([…])

histone H4 = experiment: Histone H4 hyperacetylation Western blot in treated embryos; assay type: in vivo, zebrafish; conditions: 24 hpf embryos, 6 hours; 3 μM PTBA, 25 μM PBA, 200 nM TSA
Experimental: It was next determined whether the HDACi function of PTBA was quantifiable in vivo. 24 hpf embryos were treated with 3 μM PTBA, 25 μM PBA, or 200 nM TSA for 6 hours. Protein extracts were prepared and immunoblotted with an anti-hyperacetylated histone H4 antibody. […] Furthermore, increasing the compound concentration caused a corresponding increase in hyperacetylation (FIG. 21).
SDS-PAGE and Western blotting were performed as described previously with some modifications (Noel, E. S. et al. Organ-specific requirements for Hdac1 in liver and pancreas formation. Dev Biol 322, 237-250, (2008)). Proteins were separated on 18% SDS-PAGE gels. Membranes were incubated at 4° C. overnight with 1:1000 anti-hyperacetylated histone H4 antibody (06-946, Millipore) or 1:1000 anti-α-tubulin antibody (Sigma-Aldrich) in PBT containing 5% nonfat milk.

HDAC = conditions: 5 mM; cited from earlier work
zebrafish embryos = experiment: Phenotypic screen for edema and survival in zebrafish larvae at 72 hpf; conditions: for Dead / Edemic 1 (E1) / Edemic 2 (E2) / Edemic 3 (E3) / Wild-type (WT): number of larvae (of 36), 3 μM from 2 hpf, scored at 72 hpf
Method in brief: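 Embryos (5/well in primary screen; 12–30 per group otherwise) exposed from 2 hpf in E3 medium with 0.5% DMSO, 10 μM in screen or stated concentrations, 28.5 °C for 70 h. At 72 hpf, edema scored by phenotype classification (dominant phenotype in ≥4/5 embryos in screen); survival vs 0 μM by two-tailed Fisher's exact test (p<0.05).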

renal progenitor cells = experiment: In situ hybridization for lhx1a expression in 10-somite embryos (renal progenitor cell expansion); assay type: in vivo; conditions: for Lhx1a expansion caused by analog treatment, 800 nM: 800 nM from 2 hpf; for EC50: first pass EC50 from percent expansion (Excel trendline), average where several experiments; on Lhx1a expansion caused by analog treatment, 3 μM: key: effective (+); partially effective (+/−); ineffective (−); Analogs that killed all embryos at a given concentration before reaching 10 somites are listed as XX; on Lhx1a expansion caused by analog treatment, 400 nM: key: effective (+); partially effective (+/−); ineffective (−); Analogs that killed all embryos at a given concentration before reaching 10 somites are listed as XX; on Lhx1a expansion caused by analog treatment, 800 nM: key: effective (+); partially effective (+/−); ineffective (−); Analogs that killed all embryos at a given concentration before reaching 10 somites are listed as XX
Method in brief: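 Zebrafish embryos treated with compound, then colorimetric whole-mount in situ hybridization (65° C) for lhx1a mRNA at 10 somites. Embryos with expanded kidney field counted manually as percent of total. EC50 taken as 50% point of percent-expansion trendline; compounds also classed effective, partial or ineffective versus PTBA at matched concentration.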

CD1 mice = experiment: Folic acid-induced AKI in CD1 mice; assay type: in vivo, mouse; conditions: daily IP from 24 hrs after folic acid, 15 days
Experimental: FIG. 42 are photomicrographs showing the results of an AKI model using folic acid-induced injury. Folic acid is administered to CD1 mice (n=6/group) intraperitoneally (IP) at […] in 0.3M NaHCO3. Compound UPHD-00022 was injected daily IP at […] in 30% PEG300 vehicle starting 24 hrs after folic acid treatment. Kidney tissue was stained using Trichrome and Sirus Red stained after 15 days. Blue in trichrome and the red in sirus red indicates fibrotic (scar) tissue.

Acetylated Histone H3 K9 = experiment: Renal histone acetylation after single S/C injection in CD1 mice; assay type: in vivo, mouse; conditions: 3.4 mg/kg single SC injection, 24 hours
Experimental: PTBA analogs are used at a dose range determined from comparative dose efficacy with m4PTB in the secondary zebrafish screen. […] Preliminary studies compared the effect of Trichostatin A (an established, but toxic HDACi) at an effective dose in the zebrafish screen ([…]) with an equivalent dose of m4PTB (0.8 mM), and then ×2 and ×4 dose increments (molar concentration in vivo based on estimate uniform distribution relative to body mass of water). […] Studies may be performed on 3 mice/group.

[1] = tested on: proximal convoluted tubule cells; experiment: Renal cell proliferation post gentamycin-induced AKI in zebrafish larvae; assay type: in vivo; conditions: 4 μM added 2 days post injection of gentamicin, EdU at 5 days post injection
Experimental: FIG. 43A is a graph showing the results of an AKI model using gentamycin-induced injury. AKI is generated as per a recent publication, Cianciolo Cosenitino, C., et al. ((2010) Intravenous microinjections of zebrafish larvae to study acute kidney injury. JoVE August 4 (42), pii: 2079. doi: 10.3791/2079). Four micromolar m4PTB (UPHD-00025) was added to the zebrafish E3 media in 0.5% DMSO at 2 days post injection of gentamicin and the larvae are scored daily for four days (6 days post injection) as alive or dead, with the final data tallied on day 6 post injection FIG. 43B.
Proliferation of renal cells was examined post AKI for m4PTB in zebrafish larvae (FIG. 44). AKI is generated as above with gentamycin, essentially as described in Example 11. Four μM m4PTB was added 2 days post injection of gentamicin. Zebrafish larvae at 5 days post injection were treated for 1 hour with the thymidine analogue EdU (10 milimolar), which incorporates into dividing (proliferating cells) while the larvae are in the zebrafish E3 media. The larvae where then fixed and processed for histology to count the number of proliferating cells in the proximal convulted tubule (as marked by the antibody 3G8). The number of proliferating cells was divided by the total number of cells in the proximal convoluted tubule to generate the percent of proliferation also known as the proliferation index as shown in FIG. 44.

[2] = 3 μM from 2 hpf, 10-somite embryos
[3] = 1.5 μM from 2 hpf, 10-somite embryos
[4] = Danio rerio, 1.5 μM from 2 hpf, 10-somite embryos, read-out: lhx1a expansion, percent of treated embryos
[5] = Danio rerio, percent of embryos with expanded kidney field, 1.5 μM, read-out: Expansion of Cells (including repeats* and recounts**) 1.5 μM
[6] = Danio rerio, percent of embryos with expanded kidney field, 3 μM, read-out: Expansion of Cells (including repeats* and recounts**) 3 μM

Compound	Dead (zebrafish embryos)	Edemic 1 (E1) (zebrafish embryos)	Edemic 2 (E2) (zebrafish embryos)	Edemic 3 (E3) (zebrafish embryos)	Wild-type (WT) (zebrafish embryos)	Lhx1a expansion caused by analog treatment, 3 μM (renal progenitor cells; [2])	Lhx1a expansion caused by analog treatment, 800 nM (renal progenitor cells; 10-somite embryos)	Lhx1a expansion caused by analog treatment, 1.5 μM (renal progenitor cells; [3])	responders at 1.5 µM (renal progenitor cells; [4]) [%]	responders at 1.5 µM (renal progenitor cells; [5]) [%]	responders at 3 µM (renal progenitor cells; [6]) [%]	EC50 (renal progenitor cells; Danio rerio) [nM]	other results
O=C(O)CCCc1ccccc1 [PBA, 4-phenylbutanoic acid, reference compound]	0	0	0	0	36	−							HDAC activity elicited by 10 μg HeLa extract, percent of the control value (human HDACs): 30%; histone H4 hyperacetylation (histone H4): Histone H4 hyperacetylation was observed; HDAC activity, percent of the control value (HDAC): 19%; larvae with edemic phenotype / pericardial edema by 72 hpf (zebrafish embryos; 3 μM PTBA, 25 μM PBA, 200 nM TSA): 23%; death by 72 hpf (zebrafish embryos; 25 μM PBA, 200 nM TSA, n=90): 8%; concentration producing an expansion of lhx1a expression consistent with 3 μM PTBA (renal progenitor cells; concentration-response, 10-somite embryos): 25 µM
COC(=O)CCCSc1ccc(OC)cc1 [UPHD-00022, methyl 4-[(4-methoxy-phenyl)sulfanyl]butanoate]	1	2	24	9	0	+	+	+	91	83	85	1400	renal fibrosis (Trichrome and Sirus Red) (CD1 mice): reduction in fibrosis; Lhx1a expansion caused by analog treatment, 400 nM (renal progenitor cells; 400 nM from 2 hpf, 10-somite embryos): +/−; responders at 0.8 µM (renal progenitor cells; Danio rerio, percent of embryos with expanded kidney field, 800 nM, read-out: Expansion of Cells (including repeats* and recounts**) 800 nM): 39%; responders at 0.4 µM (renal progenitor cells; Danio rerio, read-out: lhx1a expansion, percent of treated embryos, 400 nM from 2 hpf, 10-somite embryos): 29%; responders at 0.8 µM (renal progenitor cells; Danio rerio, read-out: lhx1a expansion, percent of treated embryos, 800 nM from 2 hpf, 10-somite embryos): 57%
COC(=O)CCCSc1ccccc1 [UPHD-00025, methyl 4-(phenylsulfanyl)butanoate (m4PTB)]	8	0	2	26	0	+	+/−	+	89	89	97	432	renal Ac-H3 K9 induction (Acetylated Histone H3 K9): maximal expression of Ac—H3 K9; also recorded: maximal induction of H3K9A; responders at 3 µM (renal progenitor cells; Danio rerio, 3 μM from 2 hpf, 10-somite embryos, read-out: lhx1a expansion, percent of treated embryos): 100%; responders at 0.2 µM (renal progenitor cells; Danio rerio, percent of embryos with expanded kidney field, 200 nM, read-out: Expansion of Cells (including repeats* and recounts**) 200 nM): 33%; renal cell proliferation (proliferation index) [1]: significantly increased
